Reference: PubChem BioAssay AID1062 (NMMLSC, 2008)
The source made the active and inactive calls.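 The calls were made as follows: active = compounds blocking proteasome disassembly by more than 40% at the highest tested dose; inconclusive = compounds bright enough on their own to skew readings; inactive = the rest.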 Where a SMILES comes first, the peptide text is derived from it. The star is where a group is joined. Cbz = O=C(OCc1ccccc1)*

Each molecule was assayed against 26S proteasome (lid disassembly, GFP-tagged; likely yeast) (assay: blockers of ATP hydrolysis-driven proteasome lid dissociation – biochemical, bead-based flow cytometry, GFP-tagged lid, dose response (AID 1062)). Conditions: GFP-proteasome beads, at 100 µM (top of the series).
In the case of CCCOc1ccc(/C=c2\sc3nc(-c4ccco4)nn3c2=O)cc1OCC, the inhibition of disassembly is reported as “inactive”. COC(=O)[C@H]1[C@H]2C[C@@H]3c4[nH]c5cc(OC)ccc5c4CCN3C[C@H]2C[C@@H](OC(=O)c2cc(OC)c(OC)c(OC)c2)[C@@H]1OC was tested, and the inhibition of disassembly was “inactive”. For Cc1noc(/C=C/c2ccco2)c1S(=O)(=O)N1CCC(C(=O)N2c3ccccc3CC2C)CC1 (stereo unspecified), the inhibition of disassembly was “inactive”. With Cc1ccc2nc(NC(=O)C3CCCN(S(=O)(=O)c4cccc5nsnc45)C3)sc2c1 (stereo unspecified) the inhibition of disassembly was “inactive”. For CCN(CC)c1ccc(-c2c(C#N)c(N)nc(OC)c2C#N)cc1, the inhibition of disassembly was “inactive”. For Cc1noc(/C=C/c2ccco2)c1S(=O)(=O)N1CCC(C(=O)N(C)Cc2ccccc2)CC1, the inhibition of disassembly was “inactive”. In the case of O=c1cc(Nc2ccc3c(c2)OCCO3)[nH]c(=O)n1C1CCCCC1, the inhibition of disassembly is reported as “inactive”. With Fc1ccc2nc(Nc3nc4c(s3)CCCC4)sc2c1 the inhibition of disassembly was “inactive”. With O=C1CC(c2ccccc2)Cc2nc(N3CCc4ccccc43)ncc21 (stereo unspecified) the inhibition of disassembly was “inactive”. For Cc1noc(/C=C/c2ccco2)c1S(=O)(=O)N1CCC(C(=O)N2CCc3ccccc3C2)CC1, the inhibition of disassembly was “inactive”. CCOc1ccc(/C=c2\sc3nc(-c4ccco4)nn3c2=O)cc1OCC was tested, and the inhibition of disassembly was “inactive”. COC(=O)C1=C(C)N=c2s/c(=C/c3cccs3)c(=O)n2C1c1cccs1 (stereo unspecified) was tested, and the inhibition of disassembly was “inactive”. N#Cc1cc2c(nc1SCC(=O)Nc1sc3c(c1C#N)CCC3)CCCCC2 was tested, and the inhibition of disassembly was “inactive”. With COC(=O)c1ccc2c(c1)N(Cc1nc(-c3cccc(Cl)c3)oc1C)C(=O)C1CCCN21 (stereo unspecified) the inhibition of disassembly was “inactive”. With CC(C)C[C@@H](C=O)NC(=O)[C@H](CC(C)C)NC(=O)[C@H](CC(C)C)NC(=O)OCc1ccccc1 (Cbz-Leu-Leu-Leu-aldehyde) the inhibition of disassembly was “inactive”. Cc1ccc(C)c(N2CCN(S(=O)(=O)c3c(C)noc3/C=C/N(C)C)CC2)c1 was tested, and the inhibition of disassembly was “inactive”.

Same assay, conditions: GFP-proteasome beads, disassembly inhibition
CC(=O)N1C(=O)C(=C2C=C(C)OC(C)=C2)c2ccccc21 gave an EC50 of 61.7 µM. For O=C(CN1C(=O)C2CCCN2c2ncc(Cl)cc21)NCc1ccc2c(c1)OCO2 (stereo unspecified), the EC50 was “inactive”. In the case of COC(=O)c1ccc2c(c1)N(Cc1nc(-c3ccc(Cl)cc3)oc1C)C(=O)C1CCCN21 (stereo unspecified), the EC50 is reported as > 100 µM (inactive). For O=C(Nc1ccccc1)C1=C(O)CC(c2ccco2)CC1=Nc1ccccc1 (stereo unspecified), the EC50 was > 100 µM (inactive). In the case of Cc1cccc(NC(=O)c2sc3nc(-c4ccc(F)cc4)cn3c2C)n1, the EC50 is reported as 25.9 µM.
